In publication PMC9736855, “Discovery of 3-Amino-1H-pyrazole-Based Kinase Inhibitors to Illuminate the Understudied PCTAIRE Family” (International Journal of Molecular Sciences, 2022):

Key:
Assay in all cases: DSF
Assay type in all cases: binding
CAMK2B = biological target: T1, CAMK2B (Homo sapiens, UniProt Q13554)
T1 construct: purchased in-house DSF panel (SGC Frankfurt)
Method: (§2) Recombinant protein kinase domains with a concentration of 2 μM were mixed with a 10 μM compound solution in DMSO, 20 mM HEPES, pH 7.5, and 500 mM NaCl. SYPRO Orange (5000×, Invitrogen) was added as a fluorescence probe (1 µl per mL). Subsequently, temperature-dependent protein unfolding profiles were measured, using the QuantStudio™ 5 realtime PCR machine (Thermo Fisher, Waltham, MA, USA). […] The temperature was raised with a step rate of 3 °C per minute. Data points were analyzed with the internal software (Thermal Shift SoftwareTM Version 1.4, Thermo Fisher) using the Boltzmann equation to determine the inflection point of the transition curve [56]. Differences in melting temperature are given as ΔTm values in °C. Measurements were performed in duplicates.

MAPKAPK2 = biological target: T2, MAPKAPK2 (Homo sapiens, UniProt P49137)
T2 construct: purchased in-house DSF panel (SGC Frankfurt)
T2 sequence (P49137 64-325): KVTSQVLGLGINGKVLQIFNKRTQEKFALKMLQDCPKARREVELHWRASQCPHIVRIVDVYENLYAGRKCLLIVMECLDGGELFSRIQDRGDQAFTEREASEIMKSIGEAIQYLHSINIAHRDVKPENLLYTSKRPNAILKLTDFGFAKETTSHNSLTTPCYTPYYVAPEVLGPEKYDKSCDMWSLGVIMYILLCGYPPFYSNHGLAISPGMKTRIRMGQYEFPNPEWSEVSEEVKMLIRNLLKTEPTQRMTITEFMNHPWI
Method: Recombinant protein kinase domains with a concentration of 2 μM were mixed with a 10 μM compound solution in DMSO, 20 mM HEPES, pH 7.5, and 500 mM NaCl. SYPRO Orange (5000×, Invitrogen) was added as a fluorescence probe (1 µl per mL). Subsequently, temperature-dependent protein unfolding profiles were measured, using the QuantStudio™ 5 realtime PCR machine (Thermo Fisher, Waltham, MA, USA). […] The temperature was raised with a step rate of 3 °C per minute. Data points were analyzed with the internal software (Thermal Shift SoftwareTM Version 1.4, Thermo Fisher) using the Boltzmann equation to determine the inflection point of the transition curve. Differences in melting temperature are given as ΔTm values in °C. Measurements were performed in duplicates.

MARK3 = biological target: T3, MARK3 (Homo sapiens, UniProt P27448)
T3 construct: purchased in-house DSF panel (SGC Frankfurt)
T3 sequence (P27448 whole entry): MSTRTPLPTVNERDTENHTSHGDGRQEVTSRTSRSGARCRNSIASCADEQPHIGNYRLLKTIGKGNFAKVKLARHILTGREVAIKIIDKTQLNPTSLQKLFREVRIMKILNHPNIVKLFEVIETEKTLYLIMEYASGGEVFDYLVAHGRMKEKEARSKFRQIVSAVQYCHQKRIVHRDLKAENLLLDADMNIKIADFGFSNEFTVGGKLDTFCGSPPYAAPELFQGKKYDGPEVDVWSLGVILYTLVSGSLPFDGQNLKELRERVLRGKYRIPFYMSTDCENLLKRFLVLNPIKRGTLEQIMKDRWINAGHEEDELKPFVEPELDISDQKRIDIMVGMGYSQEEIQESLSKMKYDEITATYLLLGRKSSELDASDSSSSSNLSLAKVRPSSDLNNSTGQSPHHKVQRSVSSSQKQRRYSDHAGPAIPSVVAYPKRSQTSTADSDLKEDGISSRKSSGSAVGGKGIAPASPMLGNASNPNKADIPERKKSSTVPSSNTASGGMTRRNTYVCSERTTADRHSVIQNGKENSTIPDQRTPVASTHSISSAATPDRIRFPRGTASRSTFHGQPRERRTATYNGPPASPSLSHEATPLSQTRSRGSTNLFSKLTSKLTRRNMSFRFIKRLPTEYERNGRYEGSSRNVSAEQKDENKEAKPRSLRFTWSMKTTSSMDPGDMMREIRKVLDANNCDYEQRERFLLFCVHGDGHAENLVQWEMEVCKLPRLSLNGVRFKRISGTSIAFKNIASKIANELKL
Method: as §2

EPHB1 = biological target: T4, EPHB1 (Homo sapiens, UniProt P54762)
T4 construct: purchased in-house DSF panel (SGC Frankfurt)
T4 sequence (P54762 602-896): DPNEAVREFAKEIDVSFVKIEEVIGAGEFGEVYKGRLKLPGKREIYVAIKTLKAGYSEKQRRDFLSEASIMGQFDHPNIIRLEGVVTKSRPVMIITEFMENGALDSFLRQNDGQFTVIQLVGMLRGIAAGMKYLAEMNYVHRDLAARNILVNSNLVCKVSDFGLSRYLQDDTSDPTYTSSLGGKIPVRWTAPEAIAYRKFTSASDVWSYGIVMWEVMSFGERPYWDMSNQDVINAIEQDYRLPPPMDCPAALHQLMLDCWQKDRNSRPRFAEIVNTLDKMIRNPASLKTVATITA
Method: as §2

DYRK1A = biological target: T5, DYRK1A (Homo sapiens, UniProt Q13627)
T5 construct: purchased in-house DSF panel (SGC Frankfurt)
Method: as §2

NEK2 = biological target: T6, NEK2 (Homo sapiens, UniProt P51955)
T6 construct: purchased in-house DSF panel (SGC Frankfurt)
T6 sequence (P51955 1-271): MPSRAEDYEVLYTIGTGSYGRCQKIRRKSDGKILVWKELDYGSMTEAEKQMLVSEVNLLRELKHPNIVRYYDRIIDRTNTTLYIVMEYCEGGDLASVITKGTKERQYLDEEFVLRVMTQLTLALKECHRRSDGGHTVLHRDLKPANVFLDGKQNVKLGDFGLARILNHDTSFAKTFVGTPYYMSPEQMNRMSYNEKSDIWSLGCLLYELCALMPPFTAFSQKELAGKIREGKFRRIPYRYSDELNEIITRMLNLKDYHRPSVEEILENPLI
Method: (§1) Measurements were performed in duplicates.

EPHA4 = biological target: T7, EPHA4 (Homo sapiens, UniProt P54764)
T7 construct: purchased in-house DSF panel (SGC Frankfurt)
T7 sequence (P54764 606-890): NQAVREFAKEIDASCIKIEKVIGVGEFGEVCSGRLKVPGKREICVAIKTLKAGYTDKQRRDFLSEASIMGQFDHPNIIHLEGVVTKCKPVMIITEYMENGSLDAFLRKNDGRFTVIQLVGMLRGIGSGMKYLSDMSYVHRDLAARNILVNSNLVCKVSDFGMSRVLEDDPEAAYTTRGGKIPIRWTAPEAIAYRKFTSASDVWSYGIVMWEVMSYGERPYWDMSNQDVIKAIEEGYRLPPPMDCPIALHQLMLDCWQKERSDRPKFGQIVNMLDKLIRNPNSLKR
Method: as §1

HIPK2 = biological target: T8, HIPK2 (Homo sapiens, UniProt Q9H2X6)
T8 construct: purchased in-house DSF panel (SGC Frankfurt)
T8 sequence (Q9H2X6 199-527): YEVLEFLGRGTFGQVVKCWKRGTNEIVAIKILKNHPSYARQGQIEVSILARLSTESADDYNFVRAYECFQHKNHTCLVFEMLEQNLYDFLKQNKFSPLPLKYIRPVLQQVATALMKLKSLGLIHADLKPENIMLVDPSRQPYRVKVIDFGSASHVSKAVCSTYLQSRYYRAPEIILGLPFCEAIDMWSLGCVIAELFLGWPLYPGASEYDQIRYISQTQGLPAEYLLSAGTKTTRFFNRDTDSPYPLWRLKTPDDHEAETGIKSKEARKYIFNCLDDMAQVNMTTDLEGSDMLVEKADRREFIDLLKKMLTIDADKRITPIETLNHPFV
Method: as §1

STK6 = biological target: T9, STK6 (Homo sapiens, UniProt O14965)
T9 construct: purchased in-house DSF panel (SGC Frankfurt)
T9 sequence (O14965 122-403): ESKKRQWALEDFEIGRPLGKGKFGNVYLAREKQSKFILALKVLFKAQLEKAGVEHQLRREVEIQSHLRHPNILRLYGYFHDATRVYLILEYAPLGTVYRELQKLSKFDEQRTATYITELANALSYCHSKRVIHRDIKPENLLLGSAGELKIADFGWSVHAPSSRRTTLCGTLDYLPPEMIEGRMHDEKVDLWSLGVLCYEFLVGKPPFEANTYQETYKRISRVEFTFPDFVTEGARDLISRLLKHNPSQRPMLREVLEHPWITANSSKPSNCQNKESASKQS
Method: as §2

DYRK2 = biological target: T10, DYRK2 (Homo sapiens, UniProt Q92630)
T10 construct: purchased in-house DSF panel (SGC Frankfurt)
T10 sequence (Q92630 1-601): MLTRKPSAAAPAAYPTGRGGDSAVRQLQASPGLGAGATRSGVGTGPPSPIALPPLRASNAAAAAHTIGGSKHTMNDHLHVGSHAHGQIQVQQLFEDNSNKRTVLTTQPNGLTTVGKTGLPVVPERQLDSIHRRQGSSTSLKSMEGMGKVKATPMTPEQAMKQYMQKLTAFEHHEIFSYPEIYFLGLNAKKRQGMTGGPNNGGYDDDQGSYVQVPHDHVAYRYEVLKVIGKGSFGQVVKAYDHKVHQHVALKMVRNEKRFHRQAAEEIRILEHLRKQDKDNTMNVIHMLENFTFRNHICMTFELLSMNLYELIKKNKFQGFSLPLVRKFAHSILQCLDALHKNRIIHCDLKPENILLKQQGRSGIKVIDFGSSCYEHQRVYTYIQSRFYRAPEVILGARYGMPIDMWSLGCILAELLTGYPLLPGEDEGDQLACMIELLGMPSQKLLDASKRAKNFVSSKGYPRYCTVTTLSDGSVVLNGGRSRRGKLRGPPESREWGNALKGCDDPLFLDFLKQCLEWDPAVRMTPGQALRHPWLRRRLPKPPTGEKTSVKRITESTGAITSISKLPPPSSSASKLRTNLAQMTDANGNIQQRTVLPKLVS
Method: as §2

ULK1 = biological target: T11, ULK1 (Homo sapiens, UniProt O75385)
T11 construct: purchased in-house DSF panel (SGC Frankfurt)
T11 sequence (O75385 1-283): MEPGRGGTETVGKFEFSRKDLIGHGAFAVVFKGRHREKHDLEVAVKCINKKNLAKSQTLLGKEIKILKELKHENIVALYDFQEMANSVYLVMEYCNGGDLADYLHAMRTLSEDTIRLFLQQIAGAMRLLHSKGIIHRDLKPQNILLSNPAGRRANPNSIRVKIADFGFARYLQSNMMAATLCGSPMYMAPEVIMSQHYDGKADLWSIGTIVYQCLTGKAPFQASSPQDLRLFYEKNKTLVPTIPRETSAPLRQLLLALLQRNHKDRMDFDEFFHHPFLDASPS
Method: as §1

T1 sequence (Q13554 11-303): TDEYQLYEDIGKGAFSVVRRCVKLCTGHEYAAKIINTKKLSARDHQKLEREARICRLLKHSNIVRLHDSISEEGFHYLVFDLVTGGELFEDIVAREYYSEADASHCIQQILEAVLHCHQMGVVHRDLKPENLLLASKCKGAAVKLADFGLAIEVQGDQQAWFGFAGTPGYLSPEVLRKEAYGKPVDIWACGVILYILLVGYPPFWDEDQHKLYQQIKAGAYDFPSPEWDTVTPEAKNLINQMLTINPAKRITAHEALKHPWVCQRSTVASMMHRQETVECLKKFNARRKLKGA

Compound	ΔTm CAMK2B (CAMK2B) [°C]	ΔTm MAPKAPK2 (MAPKAPK2) [°C]	ΔTm MARK3 (MARK3) [°C]	ΔTm EPHB1 (EPHB1) [°C]	ΔTm DYRK1A (DYRK1A) [°C]	ΔTm NEK2 (NEK2) [°C]	ΔTm EPHA4 (EPHA4) [°C]	ΔTm HIPK2 (HIPK2) [°C]	ΔTm STK6 (STK6) [°C]	ΔTm DYRK2 (DYRK2) [°C]	ΔTm ULK1 (ULK1) [°C]
CC(C)OC(=O)c1cc(Nc2ccnc(NCc3ccc(NC(=O)OC(C)(C)C)cc3)n2)n[nH]1 [42d, isopropyl 3-((2-((4-((tert-butoxycarbonyl)amino)benzyl)amino)pyrimidin-4-yl)amino)-1H-pyrazole-5-carboxylate]	-1.2	-0.3	-0.4	0.9	0.0	-1.4	-0.1	-0.2	3.4	0.5	–
CC(C)(C)OC(=O)Nc1ccc(CNc2nccc(Nc3cc(C(=O)OC(C)(C)C)[nH]n3)n2)cc1 [43d, tert-butyl 3-((2-((4-((tert-butoxycarbonyl)amino)benzyl)amino)pyrimidin-4-yl)amino)-1H-pyrazole-5-carboxylate]	-0.5	0.2	-0.5	1.0	1.8	2.0	0.0	0.1	4.0	0.8	–
COC(=O)c1cc(Nc2ccnc(NCCOCCNC(=O)OC(C)(C)C)n2)[nH]n1 [21d, methyl 5-((2-((2-(2-((tert-butoxycarbonyl)amino)ethoxy)ethyl)amino)pyrimidin-4-yl)amino)-1H-pyrazole-3-carboxylate]	0.2	–	2.5	–	1.2	–	–	–	3.2	2.1	2.3
CN[C@@H]1C[C@H]2O[C@@](C)([C@@H]1OC)n1c3ccccc3c3c4c(c5c6ccccc6n2c5c31)C(=O)NC4 [staurosporine, reference compound]	–	–	–	–	–	3.3	6.2	4.4	–	–	11.3
N#CCc1ccc(Nc2nccc(Nc3cc(C4CC4)[nH]n3)n2)cc1 [compound 1, reference compound]	4.4	–	8.1	–	8.2	–	–	–	14.3	11.0	15.5
COC(=O)c1cc(Nc2ccnc(NCc3ccc(NC(=O)OC(C)(C)C)cc3)n2)[nH]n1 [21i, methyl 5-((2-((4-((tert-butoxycarbonyl)amino)benzyl)amino)pyrimidin-4-yl)amino)-1H-pyrazole-3-carboxylate]	0.6	–	1.5	–	3.4	–	–	–	4.6	1.1	2.7
